Source: patent US10021877B2, “Substituted 5-hydroxy-2,3-diphenylpentanonitrile derivatives, processes for their preparation and their use as herbicides and/or plant growth regulators” (BAYER CROPSCIENCE AKTIENGESELLSCHAFT, priority 2013, dated 2018)

System: PHBPU=Pharbitis purpurea
Assay: Biological tests (herbicidal action) against PHBPU
Format: in vivo
Conditions: application rate 320 g/ha
Text: Seeds of monocotyledonous and dicotyledonous weed plants and crop plants were placed in wood-fibre pots in sandy loam and covered with soil. The compounds (I) according to the invention, formulated in the form of wettable powders (WP), were then applied as aqueous suspension or emulsion at a water application rate of 600 l/ha (converted) with the addition of 0.2% of wetting agent to the surface of the covering soil.
After the treatment, the pots were placed in a greenhouse and kept under good growth conditions for the test plants. After about 3 weeks, the effect was scored visually in comparison with untreated controls as percentages. For example, 100% activity=the plants have died, 50% herbicidal activity or damage=the plants have been reduced by 50% or the plant mass has been reduced by 50%, 0% activity=like control plants.
Seeds of monocotyledonous and dicotyledonous weeds and crop plants were placed in sandy loam in wood-fibre pots, covered with soil and cultivated in a greenhouse under good growth conditions. […]
What was determined was the respective herbicidal activity, in each case at the same point in time after application of the formulation in question. i.e. the damage to the respective harmful plant in %.

SMILES | herbicidal activity against PHBPU
CC(=O)OCCC(c1cc(F)ccc1F)C(C#N)c1ccc(F)c(Br)c1 (mixture of isomers) [Ibb52] | 100%
N#C[C@@H](c1cccc(F)c1)[C@@H](CCO)c1ccc(Cl)cc1 [threo-1-Iba354] | 80%
